Reference: patent publication US9204653B2, “5-fluoro pyrimidine derivatives” (DOW AGROSCIENCES LLC, priority 2008, dated 2015)
Where two headings read alike, the source gives them in different places.

Test system: Mycosphaerella graminicola; Anamorph: Septoria tritici; Bayer Code SEPTTR
Experiment: Leaf blotch of wheat, foliar fungicide treatment, one day protectant (1DP) or three day curative (3DC)
Format: in vivo, Septoria tritici on wheat plants (variety Yuma)
Settings: Zymoseptoria tritici; for pest or weed control at 50 ppm / pest or weed control at 200 ppm: % disease control rating
[1] = 24 h, one day protectant (1DP), 25 ppm, rating of percent disease control, read-out: SETTTR 1DP 25 ppm
[2] = 24 h, one day protectant (1DP), rating of percent disease control, read-out: SEPTTR 1DP 100 ppm
[3] = 72 h, three day curative (3DC), 25 ppm, rating of percent disease control, read-out: SEPTTR 3DC 25 ppm
[4] = 72 h, three day curative (3DC), rating of percent disease control, read-out: SEPTTR 3DC 100 ppm
[5] = 24 h, one day protectant (1DP), 25 ppm (first 1DP column), percent control rating, read-out: SETTTR 1DP 25 ppm
[6] = 24 h, one day protectant (1DP), 25 ppm as printed (second 1DP column), percent control rating, read-out: SETTTR 1DP 25 ppm
[7] = 72 h, three day curative (3DC), 25 ppm, percent control rating, read-out: SEPTTR 3DC 25 ppm
[8] = 72 h, three day curative (3DC), percent control rating, read-out: SEPTTR 3DC 100 ppm
[9] = 72 h, three day curative (3DC), 25 ppm, percent disease control rating, read-out: SEPTTR 3DC 25 ppm
[10] = 72 h, three day curative (3DC), percent disease control rating, read-out: SEPTTR 3DC 100 ppm
[11] = 24 h, one day protectant (1DP), 25 ppm, percent disease control rating, read-out: SETTTR 1DP 25 ppm
[12] = 24 h, one day protectant (1DP), percent disease control rating, read-out: SEPTTR 1DP 100 ppm
[13] = 24 h, one day protectant, 25 ppm, rating of percent disease control, read-out: SETTTR 1DP 25 ppm
[14] = 24 h, one day protectant, rating of percent disease control, read-out: SEPTTR 1DP 100 ppm
[15] = 72 h, three day curative, 25 ppm, rating of percent disease control, read-out: SEPTTR 3DC 25 ppm
[16] = 72 h, three day curative, rating of percent disease control, read-out: SEPTTR 3DC 100 ppm

## OCNc1nc(OCc2cccs2)ncc1F [Compound 196]
[1]
  pest or weed control at 25 ppm: 76 to 100%
[2]
  pest or weed control at 100 ppm: 76 to 100%
[3]
  pest or weed control at 25 ppm: 76 to 100%
[4]
  pest or weed control at 100 ppm: 76 to 100%

## COc1ccccc1COc1ncc(F)c(NC(=S)Nc2ccccc2F)n1 [Compound 239]
[1]
  pest or weed control at 25 ppm: 76 to 100%
[2]
  pest or weed control at 100 ppm: 76 to 100%
[3]
  pest or weed control at 25 ppm: 51 to 75%
[4]
  pest or weed control at 100 ppm: 76 to 100%

## Cc1ccc(COc2ncc(F)c(NCc3ccccc3F)n2)cc1 [Compound 930]
24 h, one day protectant
  pest or weed control at 50 ppm: 0 to 25%
  pest or weed control at 200 ppm: 76 to 100%

## COc1ncc(F)c(N(NC(=O)c2ccc(Cl)cc2)C(=O)c2ccc(Cl)cc2)n1 [Compound 1128]
[5]
  pest or weed control at 25 ppm: 0 to 25%
[6]
  pest or weed control at 25 ppm: 0 to 25%
[7]
  pest or weed control at 25 ppm: 0 to 25%
[8]
  pest or weed control at 100 ppm: 0 to 25%

## Fc1cnc(OCc2ccco2)nc1NC1CC1 [Compound 898]
24 h, one day protectant
  pest or weed control at 50 ppm: 0 to 25%
  pest or weed control at 200 ppm: 0 to 25%

## Fc1ccc(COc2ncc(F)c(NC3CC3)n2)cc1F [Compound 938]
24 h, one day protectant
  pest or weed control at 200 ppm: 76 to 100%

## Cc1ccc(CNc2nc(OCc3ccc(Cl)cc3)ncc2F)cc1 [Compound 920]
24 h, one day protectant
  pest or weed control at 50 ppm: 76 to 100%
  pest or weed control at 200 ppm: 76 to 100%

## CC(=O)OCOc1ncc(F)c(NC=O)n1 [Compound 1125]
[5]
  pest or weed control at 25 ppm: 76 to 100%
[6]
  pest or weed control at 25 ppm: 76 to 100%
[7]
  pest or weed control at 25 ppm: 76 to 100%
[8]
  pest or weed control at 100 ppm: 76 to 100%

## COc1cccc(COc2ncc(F)c(NOC(C)C)n2)c1 [Compound 463]
[1]
  pest or weed control at 25 ppm: 0 to 25%
[2]
  pest or weed control at 100 ppm: 51 to 75%
[3]
  pest or weed control at 25 ppm: 26 to 50%
[4]
  pest or weed control at 100 ppm: 51 to 75%

## Cc1ccc(COc2ncc(F)c(NC#N)n2)cc1 [Compound 1130]
24 h, one day protectant (1DP), 25 ppm (first 1DP column), percent disease control rating, read-out: SETTTR 1DP 25 ppm
  pest or weed control at 25 ppm: 0 to 25%
24 h, one day protectant (1DP), 25 ppm as printed (second 1DP column), percent disease control rating, read-out: SETTTR 1DP 25 ppm
  pest or weed control at 25 ppm: 0 to 25%
[9]
  pest or weed control at 25 ppm: 26 to 50%
[10]
  pest or weed control at 100 ppm: 0 to 25%

## CC(Oc1ncc(F)c(N)n1)c1ccc(-c2ccc(Br)cc2)cc1 (centres unmarked) [Compound 175]
[11]
  pest or weed control at 25 ppm: 76 to 100%
[12]
  pest or weed control at 100 ppm: 76 to 100%
[9]
  pest or weed control at 25 ppm: 0 to 25%
[10]
  pest or weed control at 100 ppm: 0 to 25%

## COc1ccccc1COc1ncc(F)c(NCc2cccs2)n1 [Compound 869]
24 h, one day protectant
  pest or weed control at 200 ppm: 76 to 100%

## Cc1ccc(COc2ncc(F)c(NCc3ccc(Cl)nc3)n2)cc1 [Compound 844]
24 h, one day protectant
  pest or weed control at 50 ppm: 76 to 100%
  pest or weed control at 200 ppm: 76 to 100%

## COc1ccc(Oc2ncc(F)c(NC(=O)Nc3ccsc3)n2)cc1 [Compound 737]
[1]
  pest or weed control at 25 ppm: 0 to 25%
[2]
  pest or weed control at 100 ppm: 0 to 25%
[3]
  pest or weed control at 25 ppm: 0 to 25%
[4]
  pest or weed control at 100 ppm: 0 to 25%

## CN(N)c1nc(OCc2ccccc2)ncc1F [Compound 395]
[1]
  pest or weed control at 25 ppm: 0 to 25%
[2]
  pest or weed control at 100 ppm: 0 to 25%
[3]
  pest or weed control at 25 ppm: 26 to 50%
[4]
  pest or weed control at 100 ppm: 51 to 75%

## Fc1ccc(COc2ncc(F)c(NNC3CCCCC3)n2)cc1 [Compound 492]
[1]
  pest or weed control at 25 ppm: 0 to 25%
[2]
  pest or weed control at 100 ppm: 26 to 50%
[3]
  pest or weed control at 25 ppm: 0 to 25%
[4]
  pest or weed control at 100 ppm: 26 to 50%

## CC(Oc1ncc(F)c(N)n1)c1ccc(Cl)c(Cl)c1Cl (centres unmarked) [Compound 607]
[13]
  pest or weed control at 25 ppm: 0 to 25%
[14]
  pest or weed control at 100 ppm: 0 to 25%
[15]
  pest or weed control at 25 ppm: 0 to 25%
[16]
  pest or weed control at 100 ppm: 26 to 50%

## Nc1nc(OCc2ccccc2F)ncc1F [Compound 713]
[13]
  pest or weed control at 25 ppm: 76 to 100%
[14]
  pest or weed control at 100 ppm: 76 to 100%
[15]
  pest or weed control at 25 ppm: 51 to 75%
[16]
  pest or weed control at 100 ppm: 76 to 100%

## Nc1nc(OS(=O)(=O)c2ccccc2)ncc1F [Compound 29, Benzenesulfonic acid 4-amino-5-fluoropyrimidin-2-yl ester]
[11]
  pest or weed control at 25 ppm: 76 to 100%
[12]
  pest or weed control at 100 ppm: 76 to 100%
[9]
  pest or weed control at 25 ppm: 51 to 75%
[10]
  pest or weed control at 100 ppm: 76 to 100%

## Cc1cc(C)cc(COc2ncc(F)c(N)n2)c1 [Compound 564]
[13]
  pest or weed control at 25 ppm: 51 to 75%
[14]
  pest or weed control at 100 ppm: 76 to 100%
[15]
  pest or weed control at 25 ppm: 26 to 50%
[16]
  pest or weed control at 100 ppm: 76 to 100%

## Fc1ccc(COc2ncc(F)c(NC3CCCCC3)n2)cc1 [Compound 205]
[1]
  pest or weed control at 25 ppm: 0 to 25%
[2]
  pest or weed control at 100 ppm: 0 to 25%
[3]
  pest or weed control at 25 ppm: 0 to 25%
[4]
  pest or weed control at 100 ppm: 51 to 75%

## Fc1cnc(OCc2ccccc2Cl)nc1NCc1cccs1 [Compound 810]
24 h, one day protectant
  pest or weed control at 200 ppm: 76 to 100%
